By IC50 is commonly meant the concentration that inhibits the measured activity by half.

The experiment addresses T1, TGFβ R1 (Homo sapiens, UniProt P36897).
T1 sequence (P36897 34-503): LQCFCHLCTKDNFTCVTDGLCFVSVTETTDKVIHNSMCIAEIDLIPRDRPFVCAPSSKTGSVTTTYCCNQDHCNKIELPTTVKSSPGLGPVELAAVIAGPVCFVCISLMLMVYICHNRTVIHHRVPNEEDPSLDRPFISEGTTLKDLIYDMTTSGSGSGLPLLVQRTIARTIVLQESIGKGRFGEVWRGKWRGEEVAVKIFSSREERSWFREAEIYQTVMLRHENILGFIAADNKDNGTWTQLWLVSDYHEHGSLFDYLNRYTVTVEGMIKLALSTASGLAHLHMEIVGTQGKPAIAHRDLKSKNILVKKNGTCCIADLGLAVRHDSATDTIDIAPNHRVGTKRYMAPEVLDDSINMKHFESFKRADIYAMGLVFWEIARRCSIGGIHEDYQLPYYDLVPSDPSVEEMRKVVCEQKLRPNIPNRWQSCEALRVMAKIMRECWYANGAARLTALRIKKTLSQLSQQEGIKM
The experiment in a line: TGFβ R1 autophosphorylation protocol (33P-ATP, phosphocellulose filter plate). Type of experiment: biochemical. The conditions noted are these: 10 uM ATP, 170 nM TGFβ R1, room temperature 20 minutes, read-out: IC50 for Kinase Inhibition. The essentials:
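Incorporation of 33P from γ-33P-ATP (10 uM ATP final) into the kinase itself (170 nM) measured by phosphocellulose capture and scintillation counting. Incubation 20 min at room temperature in 20 mM MOPS pH 7 with […]; final DMSO ≤1%.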
Turning to `CC(C)c1cnc(-c2cc(Cl)ccc2F)nc1Nc1ccncc1C(=O)N1CCC[C@H](O)C1` [Compound 214, {4-[2-(5-Chloro-2-fluoro-phenyl)-5-isopropyl-pyrimidin-4-ylamino]-pyridin-3-yl}-(3-hydroxy-piperidin-1-yl)-methanone], the IC50 came out at 283 nM.

For the compound `CC(C)c1cnc(-c2cc(Cl)ccc2F)nc1Nc1ccncc1C(=O)N1CCC[C@@H](O)C1` [Compound 217, {4-[2-(5-Chloro-2-fluoro-phenyl)-5-isopropyl-pyrimidin-4-ylamino]-pyridin-3-yl}-(3-hydroxy-piperidin-1-yl)-methanone], the IC50 was determined as 1210 nM. `COc1cnc(-c2cc(Cl)ccc2F)nc1Nc1ccncc1C(=O)N1CCC[C@@H](O)C1` [Compound 218, {4-[2-(5-Chloro-2-fluoro-phenyl)-5-methoxy-pyrimidin-4-ylamino]-pyridin-3-yl}-(3-hydroxy-piperidin-1-yl)-methanone]: the IC50 turned out to be 1780 nM. Consider `O=C(NCCCn1ccnc1)c1cnccc1Nc1nc(-c2cc(Cl)ccc2F)ncc1C1CCCC1` [Compound 219], for which the IC50 was determined as 44 nM. Turning to `COc1cnc(-c2cc(Cl)ccc2F)nc1Nc1ccncc1C(=O)N1CC[C@H](F)C1` [Compound 220, {4-[2-(5-Chloro-2-fluoro-phenyl)-5-methoxy-pyrimidin-4-ylamino]-pyridin-3-yl}-(3-fluoro-pyrrolidin-1-yl)-methanone], the IC50 was 249 nM.

Consider `COc1cnc(-c2cc(Cl)ccc2F)nc1Nc1ccncc1C(=O)N1CCC[C@H](O)C1` [Compound 221, {4-[2-(5-Chloro-2-fluoro-phenyl)-5-methoxy-pyrimidin-4-ylamino]-pyridin-3-yl}-(3-hydroxy-piperidin-1-yl)-methanone], for which the IC50 came to 1460 nM. Then `O=C(c1cnccc1Nc1nc(-c2cc(Cl)ccc2F)ncc1C1CCCC1)N1CCC[C@H](O)C1` [Compound 226, {4-[2-(5-Chloro-2-fluoro-phenyl)-5-cyclopentyl-pyrimidin-4-ylamino]-pyridin-3-yl}-(3-hydroxy-piperidin-1-yl)-methanone], with 2470 nM.

As to `O=C(c1cnccc1Nc1nc(-c2cc(Cl)ccc2F)ncc1C1CCCC1)N1CCOCC1` [Compound 227, {4-[2-(5-Chloro-2-fluoro-phenyl)-5-cyclopentyl-pyrimidin-4-ylamino]-pyridin-3-yl}-morpholin-4-yl-methanone], the IC50 amounted to 330 nM.

As for `CC(C)c1cnc(-c2cc(Cl)ccc2F)nc1Nc1ccncc1C(=O)N1CCN[C@H](C)C1` [Compound 228, {4-[2-(5-Chloro-2-fluoro-phenyl)-5-isopropyl-pyrimidin-4-ylamino]-pyridin-3-yl}-(3-methyl-piperazin-1-yl)-methanone], the IC50 stood at 2780 nM. As for `CC(C)c1cnc(-c2cc(Cl)ccc2F)nc1Nc1ccncc1C(=O)NC[C@H](C)OC(=O)CN` [Compound 229, Amino-acetic acid 2-{[4-[2-(5-chloro-2-fluoro-phenyl)-5-isopropyl-pyrimidin-4-ylamino]-pyridine-3-carbonyl}-amino]-1-methyl-ethyl ester], the IC50 turned out to be 19 nM. On to `CC(C)c1cnc(-c2cc(Cl)ccc2F)nc1Nc1ccncc1C(=O)N1CCC(O)CC1` [Compound 230, {4-[2-(5-Chloro-2-fluoro-phenyl)-5-isopropyl-pyrimidin-4-ylamino)-pyridin-3-yl}-(4-hydroxy-piperidin-1-yl)-methanone], for which the IC50 was determined as 1140 nM. Then `CC(C)c1cnc(-c2cc(Cl)ccc2F)nc1Nc1ccncc1C(=O)N1CCN[C@@H](C(C)C)C1` [Compound 231, {4-[2-(5-Chloro-2-fluoro-phenyl)-5-isopropyl-pyrimidin-4-ylamino]-pyridin-3-yl}-(3-isopropyl-piperazin-1-yl)-methanone], with 1090 nM. Then `CC(C)c1cnc(-c2cc(Cl)ccc2F)nc1Nc1ccncc1C(=O)N1CCNCC1` [Compound 232, {4-[2-(5-Chloro-2-fluoro-phenyl)-5-isopropyl-pyrimidin-4-ylamino]-pyridin-3-yl}-piperazin-1-yl-methanone], with 990 nM; and `CCOP(=O)(OCC)O[C@@H](C)CNC(=O)c1cnccc1Nc1nc(-c2cc(Cl)ccc2F)ncc1C(C)C` [Compound 233, Phosphoric acid 2-{(4-[2-(5-chloro-2-fluoro-phenyl)-5-isopropyl-pyrimidin-4-ylamino]-pyridine-3-carbonyl}-amino)-1-methyl-ethyl ester diethyl ester], with 280 nM. In the case of `CC(C)c1cnc(-c2cc(Cl)ccc2F)nc1Nc1ccncc1C(=O)NC[C@H](C)OP(=O)(O)O` [Compound 234, Phosphoric acid mono-[2-{[4-[2-(5-chloro-2-fluoro-phenyl}-5-isopropyl-pyrimidin-4-ylamino]-pyridine-3-carbony}-amino)-1-methyl-ethyl] ester], the IC50 worked out at 178 nM. As for `CC(C)c1cnc(-c2cc(Cl)ccc2F)nc1Nc1ccncc1C(=O)N[C@@H]1CCC[C@H]1O` [Compound 236, 4-[2-(5-Chloro-2-fluoro-phenyl)-5-isopropyl-pyrimidin-4-ylamino]-N-(2-hydroxy-cyclopentyl)-nicotinamide], the IC50 was 123 nM. Then `COc1cnc(-c2cc(Cl)ccc2F)nc1Nc1ccncc1C(=O)NCCCNS(C)(=O)=O` [Compound 237, 4-[2-(5-Chloro-2-fluoro-phenyl)-5-methoxy-pyrimidin-4-ylamino]-N-(3-methanesulfonylamino-propyl)-nicotinamide], with 63 nM. In the case of `COc1cnc(-c2cc(Cl)ccc2F)nc1Nc1ccncc1C(=O)NO` [Compound 238, 4-[2-(5-Chloro-2-fluoro-phenyl)-5-methoxy-pyrimidine-4-ylamino]-N-hydroxy-nicotinamide], the concentration for half-maximal inhibition (IC50) was found to be 1080 nM. As for `COc1cnc(-c2cc(Cl)ccc2F)nc1Nc1ccncc1C(=O)C(=O)N(C)C` [Compound 239, 2-{4-[2-(5-Chloro-2-fluoro-phenyl)-5-methoxy-pyrimidin-4-ylamino]-pyridin-3-yl]-N,N-dimethyl-2-oxo-acetamide], the IC50 was found to be 7740 nM. On to `CCCN(CCC)C(=O)C(=O)c1cnccc1Nc1nc(-c2cc(Cl)ccc2F)ncc1OC` [Compound 240, 2-{4-[2-(5-Chloro-2-fluoro-phenyl)-5-methoxy-pyrimidin-4-ylamino]-pyridin-3-yl}-2-oxo-N,N-dipropyl-acetamide], for which the IC50 is 3080 nM. In the case of `COc1cnc(-c2cc(Cl)ccc2F)nc1Nc1ccncc1C(=O)N1CC[C@@H](F)C1` [Compound 241, {4-[2-(5-Chloro-2-fluoro-phenyl)-5-methoxy-pyrimidin-4-ylamino]-pyridin-3-yl}-(3-fluoro-pyrrolidin-1-yl)-methanone], the half-inhibitory concentration (IC50) is 127 nM. With `CC(C)c1cnc(-c2cc(Cl)ccc2F)nc1Nc1ccncc1C(=O)N[C@H]1CCC[C@@H]1O` [Compound 247, 4-[2-(5-Chloro-2-fluoro-phenyl)-5-isopropyl-pyrimidin-4-ylamino]-N-(2-hydroxy-cyclopentyl)-nicotinamide], the IC50 came out at 40 nM.

(Values after patent US20060281763A1, “Carboxamide inhibitors of TGFbeta” (priority 2005, published 2006).)
